From US7732633B2, “Arylsulfinate salts in photoinitiator systems for polymerization reactions” (3M Innovative Properties Company, priority 2003, dated 2010) come the findings set out here.

Where only a bound is given, the exact number is not on record here.

For data set [1] the following is noted: in N,N-dimethylformamide, 0.1 molar TBA PF6, versus Ag/0.01M AgNO3 reference electrode, peak current, first scan, 100 mV/sec.
Protocol: The oxidation potential can be determined using cyclic voltammetry. As described herein, the oxidation potential is measured by dissolving the compound of interest in a non-aqueous solvent (i.e., N,N-dimethylformamide) containing a supporting electrolyte (i.e., 0.1 moles/liter tetrabutylammonium hexafluorophosphate). The resulting solution is purged with an inert gas such as argon. A three-electrode configuration is used that includes a working electrode (i.e., a glassy carbon electrode), a reference electrode (i.e., a silver wire in a 0.01 moles/liter of silver nitrate dissolved in acetonitrile), and a counter electrode (i.e., a platinum wire). The oxidation or reduction potential is the voltage corresponding to the maximum current for the oxidation reaction.
The scan rates were 100 mV/sec.
The electrochemical measurements were made using a three-electrode configuration: a reference electrode, a working electrode, and a counter electrode. The reference electrode was a fritted electrode (obtained from Sargent Welch, Buffalo Grove, Ill.) that was filled with 0.01M AgNO3 in acetonitrile and fitted with a silver wire 1 mm in diameter by approximately 19 cm in length. The counter electrode was a platinum wire 1.0 mm in diameter and approximately 16 cm long (overall length) formed into a coil having a coil diameter of approximately 10 mm and a coil length of about 7.5 cm. The working electrode was a glassy carbon electrode, approximately 3.5 mm in diameter (obtained from BAS, Inc., West Lafayette, Ind.). The glassy carbon electrode was polished using first a 3.0 micron aluminum oxide powder/deionized water slurry, then a 0.3 micron alpha alumina powder/deionized water slurry. The polishing powders were obtained from Buehler LTD, Evanston, Ill.
The cell was a 50 mL four neck round bottom flask. Each electrode was sealed in the flask using the appropriately sized rubber septum. The fourth inlet was used to introduce an argon purge to remove oxygen and keep atmospheric moisture out of the cell.
The supporting electrolyte was tetrabutylammonium hexafluorophosphate (TBA PF6) (obtained from Southwestern Analytical Chemicals, Inc., Austin, Tex.). The TBA PF6 was dried overnight in a vacuum oven at 80-90° C. before each experiment. The solvent was N,N-dimethylformamide (DMF), and it was used as received without further purification. The solvent was transferred to the electrochemical cell via syringe under an argon atmosphere to minimize atmospheric moisture uptake.
Electrochemical measurements were made by first preparing a 0.1 molar solution of TBA PF6 in DMF. […] The potential was determined at the peak current for the oxidation or reduction reaction on the first scan.
For data set [2] the following is noted: time to oxidize 50 weight percent of the compound at room temperature; solutions in acetonitrile-d3; pseudo-first order kinetics. The method, then: The oxidative stability of the exemplary substituted arylsulfinates was determined by proton nuclear magnetic resonance spectroscopy. Spectra of solutions of the compounds in acetonitrile-d3 were obtained at regular intervals. The resonances of the alkyl groups in the cations were used as an internal standard to assess the oxidation of the anion.

The substance “tetrabutylammonium 4-cyanobenzenesulfinate [Example 4]” registered an Eox in data set [1] of 0.15 V. Also, the “t1/2” value in data set [2] is >300 days.
“tetrabutylammonium 4-chlorobenzenesulfinate [Example 1]”: the Eox in data set [1] was found to be 0.09 V.
As to “tetrabutylammonium 4-trifluoromethylbenzenesulfinate [Example 3]”, the Eox in data set [1] is on record as 0.18 V.
Same read-out and setting: the figure for “tetrabutylammonium 4-ethoxycarbonylbenzenesulfinate [Example 2]” is 0.11 V.
